Measured values published in US7767648B2, “Tissue specific prodrugs” (priority 2000, dated 2010).

What was measured:
[1] = tested on: TSU prostate cancer cell line; assay: Killing of non-PSMA producing TSU prostate cancer cell line; format: cell-based, human
Description: The prodrugs are hydrolyzed by PSMA and release the corresponding Asp- or Glu-containing TG analogs or the TG analog itself, and also lack potent cytotoxicity when not metabolized by PSMA. Non-PSMA producing TSU-Pr1 human prostate cancer cell line is exposed to each of the prodrugs at doses that are approximately 50-times the LD50 for the corresponding free TG analog. Against the TSU prostate cancer cell line, 12ADT-Glu has an LD50 value for killing of ˜50 nM.

[2] = target: PSMA (Homo sapiens, UniProt Q04609); assay: Hydrolysis of methotrexate analog substrates by purified PSMA (HPLC); format: biochemical
Chain of PSMA (Q04609 whole entry): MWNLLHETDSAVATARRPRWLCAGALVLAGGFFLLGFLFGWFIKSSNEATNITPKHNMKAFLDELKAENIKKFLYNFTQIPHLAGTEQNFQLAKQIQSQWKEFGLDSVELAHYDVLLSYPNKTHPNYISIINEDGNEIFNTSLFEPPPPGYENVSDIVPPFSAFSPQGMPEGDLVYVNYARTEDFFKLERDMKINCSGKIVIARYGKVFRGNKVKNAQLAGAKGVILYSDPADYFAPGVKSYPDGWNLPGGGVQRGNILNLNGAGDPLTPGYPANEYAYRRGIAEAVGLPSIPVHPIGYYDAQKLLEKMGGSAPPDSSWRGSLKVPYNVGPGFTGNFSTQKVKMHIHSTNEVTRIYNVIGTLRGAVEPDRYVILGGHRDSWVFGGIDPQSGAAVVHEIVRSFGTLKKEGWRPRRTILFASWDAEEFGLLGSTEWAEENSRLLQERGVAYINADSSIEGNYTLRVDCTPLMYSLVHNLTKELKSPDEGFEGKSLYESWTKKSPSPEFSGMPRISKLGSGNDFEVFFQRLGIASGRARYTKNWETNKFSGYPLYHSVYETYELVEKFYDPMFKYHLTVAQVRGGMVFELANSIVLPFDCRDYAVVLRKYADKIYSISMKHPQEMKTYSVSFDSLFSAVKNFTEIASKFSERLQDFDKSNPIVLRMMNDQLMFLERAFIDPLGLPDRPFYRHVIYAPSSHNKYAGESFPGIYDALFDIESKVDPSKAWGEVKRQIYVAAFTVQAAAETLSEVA
Description: The extent to which various peptide substrates are hydrolyzed by PSMA was determined by synthesizing a series of methotrexate analogs including the 4-N[N-2,4-diamino-6-pteridinyl-methyl)-N-methylamino-benzoate] (APA) portion of methotrexate coupled to a variety of peptides. Poly-glutamated methotrexate is available from Schirks Laboratories in Jona, Switzerland.
A series of α-linked peptides were investigated for PSMA hydrolysis. […] In Tables 1-3, to simplify identification of the type of amino acid linkages employed, α-linkages are denoted by a hyphen (for example, Glu-Glu) and all side-chain linkages are denoted by a star (for example, Glu*Glu).
Substrate specificity for the pteroyl poly-γ-glutamyl carboxypeptidase (folate hydrolase) activity of PSMA was determined by synthesizing a series of γ-linked methotrexate analogs and assaying them for hydrolysis by PSMA.
(§1) In Tables 1-3, to simplify identification of the type of amino acid linkages employed, α-linkages are denoted by a hyphen (for example, Glu-Glu) and all side-chain linkages are denoted by a star (for example, Glu*Glu). The column labeled “% PSMA Hydrolysis” refers to the percentage of hydrolysis of a substrate to APA-Asp or to APS-Glu by purified PSMA. The column labeled “% APA-Asp or -Glu” refers to the percentage of hydrolysis of substrate to APA-Asp or APA-Glu. The column labeled “% Prodrug Remaining” refers to the area of the HPLC peak attributable to starting material divided by the areas of HPLC peaks attributable to starting material, intermediate products, and final products. […] “ND” means “not determined,” in that the experiment was not performed.

[3] = Stability of PSMA substrates in human plasma, 18 hour incubation, HPLC; format: in vitro ADME; conditions: 18 hour incubation in human plasma
Source text: (§2) In order that the prodrugs can be administered systemically via the blood, their stability in sera must be sufficiently high to avoid hydrolysis or other degradative processes which may occur prior to the prodrugs reaching their target tissues. In addition to GGH activity, a human blood plasma glutamate carboxypeptidase (PGCP) that has significant sequence homology to PSMA and glutamate carboxypeptidase activity has been identified. Therefore, to assay hydrolysis by GGH and other serum carboxypeptidases like PGCP, the APA-Glu*Glu*Glu*Glu*Asp, APA-Glu*Glu*Glu*Glu*Gln, and APA-Glu*Glu*Glu*Glu*Glu substrates were incubated in human and mouse plasma and hydrolysis determined by HPLC analysis after an 18-hour incubation, as shown in Table 3. As noted, GGH efficiently hydrolyzes poly-γ-glutamate chains as well as poly-γ-glutamated folate and methotrexate. GGH, however, is unable to hydrolyze α-linked peptides.
as §1

[4] = Stability of PSMA substrates in mouse plasma, 18 hour incubation, HPLC; format: in vitro ADME; conditions: 18 hour incubation in mouse plasma
Source text: as §2, §1

[5] = tested on: TSU cancer cell line; assay: Inhibition of clonogenic survival of TSU cells in presence or absence of exogenous PSMA; format: cell-based; conditions: exogenous PSMA 10 micrograms/mL, FIG. 4
Description: FIG. 4 is a graph of the percentage inhibition of clonogenic survival of TSU cells exposed to various concentrations of APA-Glu*Glu*Glu*Glu*Asp in the presence or absence of PSMA.
The methotrexate analog sequence APA-Glu*Glu*Glu*Glu*Asp was contacted with the non-PSMA producing TSU cancer cell line in various amounts. Exogenous PSMA (10 micrograms/mL) was added to the media and the percent inhibition of clonogenic survival was monitored.

Compound	LD50 value for killing [1]	% hydrolysis after 24 hours ([2]; Table 2, γ-linked analogs, incubated with PSMA 24 hours) [%]	% hydrolysis after 48 hours ([2]; Table 2, γ-linked analogs, incubated with PSMA 48 hours) [%]	% PSMA hydrolysis 24 h ([2]; Table 3, hydrolysis of substrate to APA-Asp or APA-Glu by purified PSMA, 24 h) [%]	% PSMA hydrolysis 48 h ([2]; Table 3, hydrolysis of substrate to APA-Asp or APA-Glu by purified PSMA, 48 h) [%]	hydrolysis by PSMA (in words) ([2]; text summary of the tables)	remaining at 18 h ([3]; HPLC peak area of starting material over all peaks, read-out: % Prodrug Remaining) [%]	% APA-Glu or -Asp ([3]; hydrolysis of substrate to APA-Asp or APA-Glu) [%]	% APA-Glu or -Asp [4] [%]	selectivity, percent inhibition of clonogenic survival with versus without PSMA [5]
8-O-(12-[L-glutamylamino]-dodecanoyl)-8-O-debutanoylthapsigargin [12ADT-Glu]	approximately 50 nM	–	–	–	–	–	–	–	–	–
CN(Cc1cnc2nc(N)nc(N)c2n1)c1ccc(C(=O)N[C@@H](CCC(=O)N[C@@H](CCC(=O)N[C@@H](CCC(=O)N[C@@H](CCC(=O)N[C@@H](CC(=O)O)C(=O)O)C(=O)O)C(=O)O)C(=O)O)C(=O)O)cc1 [APA-Glu*Glu*Glu*Glu*Asp]	–	40.9	77.7	98	100	to a greater extent after 24 hours than any of the γ-linked dipeptide analogs	20	9	72	there is selectivity
